# Results from US11873291B2, “Quinoline cGAS antagonist compounds” (ImmuneSensor Therapeutics, Inc., priority 2020, dated 2024).
# Target: T1, recombinant human cGAS (aa147-522) (Homo sapiens, UniProt Q8N884)
# T1 construct: recombinant human cGAS (aa147-522); His6-SUMO (cleaved yes); made in house; host or cells: E. coli BL21/pLys
# Test: In vitro inhibition assay of cGAS activity (ATP consumption, KinaseGlo Max)
# Format: biochemical
# Settings: Table 2, read-out: cGAS Inhibition Results IC50
# Method: Expression and Purification of Recombinant cGAS Protein: cDNA encoding full-length or amino acids […] of human cGAS was inserted into a modified pET28a vector containing an in-frame His6-SUMO tag. The E. coli strain BL21/pLys harboring the plasmid was induced with 0.5 mM IPTG at 18° C. overnight. His6-SUMO tag was removed by a SUMO protease digestion following purification of the His6-SUMO-cGAS as described previously (Sun et al, 2013, Science 339, 786).
# In vitro inhibition assay of cGAS activity: A 60 μL mixture containing 20 mM Tris-Cl, pH 7.5, 5 mM MgCl2, 0.2 mg/mL BSA, 0.01 mg/mL Herring testis DNA, 6.6 μM ATP, 0.1 mM GTP, 1.5 μg/mL of recombinant human cGAS (aa147-522) and serial dilutions of a test compound in DMSO was added to a 96-well plate and incubated at 37° C. for 20 minutes. At the end of reaction, 40 μL of KinaseGlo Max (Promega) was added and chemiluminescence was measured with a luminometer. Inhibitory effect of a compound is evaluated by plotting percentage of ATP consumption against logarithm of compound concentrations. IC50 value was calculated using GraphPad Prism 8 (GraphPad Software, Inc.).
# The letter codes for cGAS IC50 include: A (<2 μM); B (2-30 μM); C (>30 μM).
# T1 sequence (Q8N884 147-522): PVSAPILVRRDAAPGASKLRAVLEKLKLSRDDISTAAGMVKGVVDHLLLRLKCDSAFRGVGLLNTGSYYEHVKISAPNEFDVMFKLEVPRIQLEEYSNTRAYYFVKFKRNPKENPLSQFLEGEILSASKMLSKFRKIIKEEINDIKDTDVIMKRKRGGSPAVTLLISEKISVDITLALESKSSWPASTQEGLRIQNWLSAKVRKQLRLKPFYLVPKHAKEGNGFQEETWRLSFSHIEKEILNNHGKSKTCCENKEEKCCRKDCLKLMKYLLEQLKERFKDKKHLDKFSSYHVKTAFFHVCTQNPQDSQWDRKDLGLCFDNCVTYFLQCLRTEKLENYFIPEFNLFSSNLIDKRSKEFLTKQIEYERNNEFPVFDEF
row,SMILES,IC50 [nM]
1,Clc1c(-n2ccnc2)cc2c(-n3ccnc3)cc(-c3ccccc3)nc2c1Cl [I-52],> 30000
2,O[C@H]1CCCN(c2cc(-n3ccnc3)c3ccc(Cl)c(Cl)c3n2)C1 [I-133],< 2000
3,"COc1ncc(-c2cc(-n3ccnc3)c3ccc(Cl)cc3n2)cc1C(=O)O [I-33, 5-(7-chloro-4-(1H-imidazol-1-yl)quinolin-2-yl)-2-methoxynicotinic acid]",2000 to 30000
4,O=C(O)c1cc(-c2cc(-n3ccnc3)c3ccc(Cl)cc3n2)ccc1OC(F)(F)F [I-18],2000 to 30000
5,O=C(CO)N[C@@H]1C[C@@H](C(=O)O)N(c2cc(-n3ccnc3)c3ccc(Cl)c(Cl)c3n2)C1 [I-346],< 2000
6,O=C(Nc1ccccc1)[C@@H]1CCCN1c1cc(-n2ccnc2)c2ccc(Cl)c(Cl)c2n1 [I-348],> 30000
7,O=C(O)CNc1cc(-c2cn[nH]c2)nc2c(Cl)cc(Cl)cc12 [I-288],< 2000
8,CN(CCNS(=O)(=O)c1ccccc1)c1cc(-n2ccnc2)c2ccc(Cl)cc2n1 [I-227],> 30000
9,CC(=O)c1cn(-c2cc(-c3ccccc3)nc3cc(Cl)ccc23)cn1 [I-66],> 30000
10,O=[PH](O)OCCCCNc1cc(-c2cn[nH]c2)c2ccc(Cl)c(Cl)c2n1 [I-258],< 2000
11,O=C(O)C1CN(c2cc(-n3ccnc3)c3ccc(Cl)c(Cl)c3n2)CCN1CCO (stereo not drawn) [I-81],< 2000
12,"CN(CCNS(N)(=O)=O)c1cc(-n2ccnc2)c2ccc(Cl)c(Cl)c2n1 [I-223, N-(2-((7,8-dichloro-4-(1H-imidazol-1-yl)quinolin-2-yl)(methyl)amino)ethyl)aminosulfonamide]",< 2000
13,OC[C@@H](Nc1cc(-n2ccnc2)c2ccc(Cl)c(Cl)c2n1)c1ccccc1 [I-246],2000 to 30000
14,CN(CCCO[PH](=O)O)c1cc(-c2cn[nH]c2)c2ccc(Cl)c(Cl)c2n1 [I-256],< 2000
15,O=C1CN(c2cc(-n3ccnc3)c3ccc(Cl)cc3n2)CC(C(=O)O)N1 (stereo not drawn) [I-84],2000 to 30000
16,CN(CCN1CCOCC1)c1cc(-c2cn[nH]c2)c2ccc(Cl)c(Cl)c2n1 [I-214],2000 to 30000
17,O=C1CN(c2cc(-n3ccnc3)c3ccc(Cl)cc3n2)CCN1 [I-85],< 2000
18,"O=C(O)c1cc(-c2cc(-n3ccnc3)c3ccc(Cl)cc3n2)cnc1O [I-57, 5-(7-chloro-4-(1H-imidazol-1-yl)quinolin-2-yl)-2-hydroxynicotinic acid]",2000 to 30000
19,Cc1cc(N2CCNC(=O)CC2)c2ccc(Cl)c(Cl)c2n1 [I-310],> 30000
20,CNC(=O)CCN(C)c1cc(-c2cn[nH]c2)c2ccc(Cl)c(Cl)c2n1 [I-192],< 2000
21,OC[C@@H]1CCCN1c1cc(-c2cn[nH]c2)c2ccc(Cl)c(Cl)c2n1 [I-138],< 2000
22,Oc1cc(OC(F)(F)F)cc(-c2cc(-n3ccnc3)c3ccc(Cl)c(Cl)c3n2)c1 [I-44],> 30000
23,O=C1CC(Nc2cc(-n3ccnc3)c3ccc(Cl)cc3n2)CCN1 (stereo not drawn) [I-365],> 30000
24,O=C(O)CN(Cc1ccncc1)c1cc(-n2ccnc2)c2ccc(Cl)c(Cl)c2n1 [I-176],2000 to 30000
25,C[C@H](CS(N)(=O)=O)Nc1cc(-n2ccnc2)c2ccc(Cl)c(Cl)c2n1 [I-207],< 2000

row,SMILES,IC50 [nM]
1,C[C@H](Nc1cc(-c2cn[nH]c2)c2ccc(Cl)c(Cl)c2n1)C(=O)O [I-181],> 30000
2,O=C(O)C1CCN(C(=O)C[C@@H]2CCCN2c2cc(-n3ccnc3)c3ccc(Cl)c(Cl)c3n2)C1 (stereo partly drawn) [I-339],< 2000
3,Nc1ccc(-c2cc(-n3ccnc3)c3ccc(Cl)cc3n2)cc1C(=O)O [I-20],< 2000
4,CN(CCO)c1cc(-n2ccnc2)c2ccc(Cl)c(Cl)c2n1 [I-238],< 2000
5,O=C1CCN(c2cc(-n3ccnc3)c3ccc(Cl)c(Cl)c3n2)CCN1 [I-88],2000 to 30000
6,Clc1ccc2c(-c3ccn[nH]3)cc(-c3ccccc3)nc2c1 [I-68],> 30000
7,OCc1cn(-c2cc(-c3ccccc3)nc3cc(Cl)ccc23)cn1 [I-63],> 30000
8,OCCC1CCCN(c2cc(-c3cn[nH]c3)c3ccc(Cl)c(Cl)c3n2)C1 (stereo not drawn) [I-375],2000 to 30000
9,COc1ccc(-c2cc(-c3cn[nH]c3)c3ccc(Cl)c(Cl)c3n2)cc1C(=O)O [I-427],< 2000
10,"O=C(O)c1cc(-c2cc(-n3ccnc3)c3ccc(Cl)cc3n2)ccc1O [I-16, 5-(7-chloro-4-(1H-imidazol-1-yl)quinolin-2-yl)-2-hydroxybenzoic acid]",> 30000
11,O=C(O)c1ccccc1S(=O)(=O)NC[C@@H]1CCCN1c1cc(-n2ccnc2)c2ccc(Cl)c(Cl)c2n1 [I-391],< 2000
12,NS(=O)(=O)OCC1CN(c2cc(-n3ccnc3)c3ccc(Cl)c(Cl)c3n2)CCO1 (stereo not drawn) [I-96],< 2000
13,CN(CCCO)c1cc(-c2cn[nH]c2)c2ccc(Cl)c(Cl)c2n1 [I-248],< 2000
14,"Clc1cccc2c(-n3ccnc3)ccnc12 [I-408, 8-chloro-4-(1H-imidazol-1-yl)quinoline]",> 30000
15,O=C(O)[C@H]1CCCN1c1cc(-c2cn[nH]c2)nc2c(Cl)c(Cl)ccc12 [I-292],2000 to 30000
16,"NS(=O)(=O)CCNc1cc(NCC(=O)O)c2ccc(Cl)c(Cl)c2n1 [I-318, (7,8-dichloro-2-((2-sulfamoylethyl)amino)quinolin-4-yl)glycine]",> 30000
17,"O=C(O)[C@H](CO)Nc1cc(-n2ccnc2)c2ccc(Cl)c(Cl)c2n1 [I-168, (7,8-Dichloro-4-(1H-imidazol-1-yl)quinolin-2-yl)serine]",< 2000
18,CC(C)(C)c1cc(C(=O)O)cc(-c2cc(-n3ccnc3)c3ccc(Cl)cc3n2)c1 [I-25],> 30000
19,O=C(NO)[C@@H]1CCCN1c1cc(-n2ccnc2)c2ccc(Cl)c(Cl)c2n1 [I-449],< 2000
20,O=C1COc2ccc(S(=O)(=O)NC[C@@H]3CCCN3c3cc(-n4ccnc4)c4ccc(Cl)c(Cl)c4n3)cc2N1 [I-393],> 30000
21,O=C(O)[C@@H]1C[C@@H](O)CN1c1cc(-c2cn[nH]c2)c2ccc(Cl)c(Cl)c2n1 [I-433],< 2000
22,CN(CCC(=O)N1CCCC(O)C1)c1cc(-c2cn[nH]c2)c2ccc(Cl)c(Cl)c2n1 (stereo not drawn) [I-198],< 2000
23,COCCN(C)c1cc(-n2ccnc2)c2ccc(Cl)c(Cl)c2n1 [I-244],< 2000
24,"O=C(CO)Nc1cc(C(=O)O)cc(-c2cc(-n3ccnc3)c3ccc(Cl)cc3n2)c1 [I-23, 3-(7-chloro-4-(1H-imidazol-1-yl)quinolin-2-yl)-5-(2-hydroxyacetamido)benzoic acid]",< 2000

# Same assay, conditions: Table 3, read-out: cGAS Inhibition Results IC50
row,SMILES,IC50 [nM]
1,Cn1cc(-c2cc(N3CCC[C@H]3COCCC(=O)O)nc3c(Cl)c(Cl)ccc23)cn1 [I-826],> 30000
2,COCCS(=O)(=O)NCCN(C)c1cc(-n2ccnc2)c2ccc(Cl)c(Cl)c2n1 [I-610],< 2000
3,CC(C)(NC(=O)C[C@@H]1CCCN1c1cc(-n2ccnc2)c2ccc(Cl)c(Cl)c2n1)C(=O)O [I-527],< 2000
4,CO[C@H]1CCN(c2cc(-n3ccnc3)c3ccc(Cl)c(Cl)c3n2)[C@@H]1C(=O)O [I-560],< 2000
5,O=C(O)CCS(=O)(=O)N[C@@H]1C[C@@H](C(=O)O)N(c2cc(-n3ccnc3)c3ccc(Cl)c(Cl)c3n2)C1 [I-512],< 2000
6,CC(C)N(CCCOc1ccccc1C(=O)O)c1cc(-n2ccnc2)c2ccc(Cl)c(Cl)c2n1 [I-852],2000 to 30000
7,CC(C)(C)OC(=O)C[C@@H]1CCCN1c1cc(-n2ccnc2)c2ccc(Cl)c(Cl)c2n1 [I-573],2000 to 30000
8,COC(=O)C12CC(CN1c1cc(-n3ccnc3)c3ccc(Cl)c(Cl)c3n1)C2 [I-579],> 30000
9,C[C@H](NC(=O)CCN(C)c1cc(-n2ccnc2)c2ccc(Cl)c(Cl)c2n1)C(=O)O [I-565],< 2000
10,CC12CN(c3cc(-n4ccnc4)c4ccc(Cl)c(Cl)c4n3)C(C(=O)O)(C1)C2 [I-475],2000 to 30000
11,CN(CCNC(=O)c1cccc(O)c1)c1cc(-n2ccnc2)c2ccc(Cl)c(Cl)c2n1 [I-619],2000 to 30000
12,O=C(O)CCOC(C(=O)O)[C@@H]1CCCN1c1cc(-n2ccnc2)c2ccc(Cl)c(Cl)c2n1 (stereo partly drawn) [I-818],2000 to 30000
13,O=C(O)COC[C@@H]1[C@@H](O)CCN1c1cc(-n2ccnc2)c2ccc(Cl)c(Cl)c2n1 [I-697],< 2000
14,COC(=O)CO[C@@H]1CCN(c2cc(-n3ccnc3)c3ccc(Cl)c(Cl)c3n2)C1 [I-768],2000 to 30000
15,COc1ccc(OCCCN(c2cc(-n3ccnc3)c3ccc(Cl)c(Cl)c3n2)C(C)C)c(C(=O)O)c1 [I-849],2000 to 30000
16,COC(=O)[C@@H]1C[C@H](O)CN1c1cc(-n2ccnc2)c2ccc(Cl)c(Cl)c2n1 [I-459],2000 to 30000
17,O=C(O)c1cccc(S(=O)(=O)N[C@@H]2C[C@@H](C(=O)O)N(c3cc(-n4ccnc4)c4ccc(Cl)c(Cl)c4n3)C2)c1 [I-510],< 2000
18,COC(=O)[C@@H]1c2ccccc2CN1c1cc(-n2ccnc2)c2ccc(Cl)c(Cl)c2n1 [I-660],2000 to 30000
19,NS(=O)(=O)C1CCN(C(=O)C[C@@H]2CCCN2c2cc(-n3ccnc3)c3ccc(Cl)c(Cl)c3n2)C1 (stereo partly drawn) [I-537],2000 to 30000

# Same assay, conditions: cGAS Inhibition Results IC50, Table 2
row,SMILES,IC50 [nM]
1,"CCOP(=O)(O)CNc1cc(-c2cn[nH]c2)c2ccc(Cl)c(Cl)c2n1 [I-253, Ethyl hydrogen (7,8-dichloro-4-(1H-pyrazol-4-yl)quinolin-2-ylamino)methylphosphonate]",< 2000
